According to patent publication US12492188B2, “1H-benzo[D]imidazole derivatives as TLR9 inhibitors for the treatment of fibrosis” (BRISTOL-MYERS SQUIBB COMPANY, priority 2020, dated 2025):
Like-named read-outs stand apart in the source and are kept apart here. One block for each compound: values may come before it.

Legend:
Format in all cases: cell-based
human TLR7 = biological target: T1, human TLR7 (Homo sapiens, UniProt Q9NYK1); assay: TLR7 inhibition reporter assay (HEK-Blue cells, secreted embryonic alkaline phosphatase reporter); conditions: HEK-Blue cells overexpressing human TLR7, stimulated with gardiquimod 7.5 μM; read-out: TLR 7 IC50
T1 construct: host or cells: HEK-Blue cells (HEK293-derived reporter line)
T1 sequence (Q9NYK1 27-1049): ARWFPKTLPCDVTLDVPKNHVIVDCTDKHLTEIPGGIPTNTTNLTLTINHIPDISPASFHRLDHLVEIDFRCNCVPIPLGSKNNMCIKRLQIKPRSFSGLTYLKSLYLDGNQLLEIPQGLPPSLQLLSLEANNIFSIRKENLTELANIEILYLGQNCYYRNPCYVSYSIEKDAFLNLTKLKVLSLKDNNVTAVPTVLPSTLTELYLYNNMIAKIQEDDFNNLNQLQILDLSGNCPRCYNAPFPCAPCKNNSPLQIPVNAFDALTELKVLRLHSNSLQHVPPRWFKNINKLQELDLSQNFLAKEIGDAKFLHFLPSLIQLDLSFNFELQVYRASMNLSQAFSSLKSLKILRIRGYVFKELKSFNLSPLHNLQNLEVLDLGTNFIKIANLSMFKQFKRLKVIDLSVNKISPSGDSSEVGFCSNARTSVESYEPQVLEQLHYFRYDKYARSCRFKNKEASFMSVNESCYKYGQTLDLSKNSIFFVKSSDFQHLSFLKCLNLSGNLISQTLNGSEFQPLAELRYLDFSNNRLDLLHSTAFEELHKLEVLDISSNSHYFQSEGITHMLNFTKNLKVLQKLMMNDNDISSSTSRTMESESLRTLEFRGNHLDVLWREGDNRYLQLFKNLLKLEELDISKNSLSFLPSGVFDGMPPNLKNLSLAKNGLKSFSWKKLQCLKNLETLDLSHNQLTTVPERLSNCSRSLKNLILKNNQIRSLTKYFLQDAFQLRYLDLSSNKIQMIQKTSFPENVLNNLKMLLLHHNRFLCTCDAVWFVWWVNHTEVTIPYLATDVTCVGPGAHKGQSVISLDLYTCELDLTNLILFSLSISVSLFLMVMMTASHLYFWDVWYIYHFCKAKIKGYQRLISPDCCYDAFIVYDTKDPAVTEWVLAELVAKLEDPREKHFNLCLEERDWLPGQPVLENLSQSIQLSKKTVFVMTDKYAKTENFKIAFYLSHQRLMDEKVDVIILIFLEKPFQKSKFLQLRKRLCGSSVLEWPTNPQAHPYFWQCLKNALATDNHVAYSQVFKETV
In short: (§1)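 HEK-Blue cells overexpressing the respective receptor, with an NF-κB/AP-1-driven SEAP reporter, were pre-treated with compound (0.05 nM–50 μM) for 30 min at room temperature. Stimulation used gardiquimod 7.5 μM (TLR7), R848 15.9 μM (TLR8) or ODN2006 5 nM (TLR9); SEAP was read after 22 h at 37 °C as percent inhibition.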

human TLR9 = biological target: T2, human TLR9 (Homo sapiens, UniProt Q9NR96); assay: TLR9 inhibition reporter assay (HEK-Blue cells, secreted embryonic alkaline phosphatase reporter)
T2 construct: host or cells: HEK-Blue cells (HEK293-derived reporter line)
T2 sequence (Q9NR96 26-1032): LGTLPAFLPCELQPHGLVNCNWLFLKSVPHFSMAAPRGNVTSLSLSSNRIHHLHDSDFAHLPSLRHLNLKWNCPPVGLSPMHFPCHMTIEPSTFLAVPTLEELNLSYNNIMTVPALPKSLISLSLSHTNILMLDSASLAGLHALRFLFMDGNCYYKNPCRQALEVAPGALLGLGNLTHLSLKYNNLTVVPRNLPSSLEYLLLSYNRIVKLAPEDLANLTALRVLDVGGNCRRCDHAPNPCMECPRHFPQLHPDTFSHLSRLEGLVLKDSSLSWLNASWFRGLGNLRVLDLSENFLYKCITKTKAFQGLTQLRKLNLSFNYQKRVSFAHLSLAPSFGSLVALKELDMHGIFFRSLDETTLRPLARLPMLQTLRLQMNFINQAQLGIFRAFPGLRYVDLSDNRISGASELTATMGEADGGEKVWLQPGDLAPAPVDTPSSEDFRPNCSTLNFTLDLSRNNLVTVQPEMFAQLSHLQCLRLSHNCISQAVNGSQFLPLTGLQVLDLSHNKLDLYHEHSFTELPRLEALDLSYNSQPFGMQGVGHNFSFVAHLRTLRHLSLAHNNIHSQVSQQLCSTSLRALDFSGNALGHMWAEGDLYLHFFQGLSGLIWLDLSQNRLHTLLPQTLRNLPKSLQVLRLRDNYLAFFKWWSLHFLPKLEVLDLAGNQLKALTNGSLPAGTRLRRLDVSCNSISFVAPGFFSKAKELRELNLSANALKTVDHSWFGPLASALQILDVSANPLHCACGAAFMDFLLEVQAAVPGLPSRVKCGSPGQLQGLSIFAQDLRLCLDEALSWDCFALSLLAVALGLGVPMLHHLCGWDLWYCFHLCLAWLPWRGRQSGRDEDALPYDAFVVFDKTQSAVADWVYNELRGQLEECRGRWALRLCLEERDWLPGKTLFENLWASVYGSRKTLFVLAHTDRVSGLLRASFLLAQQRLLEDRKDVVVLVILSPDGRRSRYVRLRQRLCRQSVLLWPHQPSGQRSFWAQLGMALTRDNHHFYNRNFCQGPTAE
In short: as §1

human TLR8 = biological target: T3, human TLR8 (Homo sapiens, UniProt Q9NR97); assay: TLR8 inhibition reporter assay (HEK-Blue cells, secreted embryonic alkaline phosphatase reporter); conditions: HEK-Blue cells overexpressing human TLR8, stimulated with R848 15.9 μM; read-out: TLR 8 IC50
T3 construct: host or cells: HEK-Blue cells (HEK293-derived reporter line)
T3 sequence (Q9NR97 27-1041): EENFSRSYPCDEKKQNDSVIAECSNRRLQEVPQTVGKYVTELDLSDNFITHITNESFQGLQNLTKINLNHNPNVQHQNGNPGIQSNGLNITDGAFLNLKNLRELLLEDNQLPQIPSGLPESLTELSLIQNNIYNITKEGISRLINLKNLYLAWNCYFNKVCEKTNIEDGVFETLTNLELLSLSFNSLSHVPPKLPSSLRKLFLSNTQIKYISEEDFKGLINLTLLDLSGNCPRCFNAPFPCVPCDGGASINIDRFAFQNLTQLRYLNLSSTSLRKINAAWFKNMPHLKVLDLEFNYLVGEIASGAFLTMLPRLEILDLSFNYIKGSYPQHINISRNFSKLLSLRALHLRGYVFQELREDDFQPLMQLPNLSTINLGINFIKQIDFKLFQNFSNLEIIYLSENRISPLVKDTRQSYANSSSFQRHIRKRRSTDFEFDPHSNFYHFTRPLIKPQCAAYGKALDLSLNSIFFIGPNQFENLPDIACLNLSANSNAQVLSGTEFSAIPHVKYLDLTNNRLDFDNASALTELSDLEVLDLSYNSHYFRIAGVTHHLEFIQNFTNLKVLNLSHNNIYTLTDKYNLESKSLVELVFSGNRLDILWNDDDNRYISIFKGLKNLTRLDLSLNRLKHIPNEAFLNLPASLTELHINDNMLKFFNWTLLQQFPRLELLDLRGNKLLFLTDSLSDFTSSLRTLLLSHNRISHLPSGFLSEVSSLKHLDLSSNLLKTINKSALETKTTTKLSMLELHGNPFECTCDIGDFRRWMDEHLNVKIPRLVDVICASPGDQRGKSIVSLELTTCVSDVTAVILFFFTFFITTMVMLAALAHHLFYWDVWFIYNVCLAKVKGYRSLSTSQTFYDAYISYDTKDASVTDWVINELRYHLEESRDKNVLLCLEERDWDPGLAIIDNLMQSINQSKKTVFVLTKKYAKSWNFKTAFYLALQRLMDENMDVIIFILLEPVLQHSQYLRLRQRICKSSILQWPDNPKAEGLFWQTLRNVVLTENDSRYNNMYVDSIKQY
In short: as §1

[1] = HEK-Blue cells overexpressing human TLR9, stimulated with ODN2006 5 nM, 22 hour incubation, reporter readout
[2] = HEK-Blue cells overexpressing human TLR9, stimulated with ODN2006 5 nM, read-out: TLR 9 IC50

SMILES: CC(C)N1CCC(N2CCC(c3ccc4nc(-c5ccc(S(C)(=O)=O)cc5)[nH]c4c3F)CC2)CC1 [Example 87, 7-fluoro-6-(1′-isopropyl-[1,4′-bipiperidin]-4-yl)-2-(4-(methylsulfonyl)phenyl)-1H-benzo[d]imidazole]
IC50 (human TLR7): > 50000 nM | IC50 (human TLR9; [1]): 950 nM | IC50 (human TLR8): > 50000 nM

SMILES: CC(C)N1CCC(N2CCC(c3ccc4c(nc(-c5ccc(S(C)(=O)=O)cc5)n4C)c3F)CC2)CC1 [Example 88, 4-fluoro-5-(1′-isopropyl-[1,4′-bipiperidin]-4-yl)-1-methyl-2-(4-(methylsulfonyl)phenyl)-1H-benzo[d]imidazole]
IC50 (human TLR7): > 50000 nM | IC50 (human TLR9; [1]): 360 nM | IC50 (human TLR9; [2]): 363 nM | IC50 (human TLR8): > 50000 nM

SMILES: CC(C)N1CCC(N2CCC(c3cc4c(cc3F)nc(-c3ccc(S(C)(=O)=O)cc3)n4C)CC2)CC1 [Example 96, 5-fluoro-6-(1′-isopropyl-[1,4′-bipiperidin]-4-yl)-1-methyl-2-(4-(methylsulfonyl)phenyl)-1H-benzo[d]imidazole]
IC50 (human TLR7): 7300 nM | IC50 (human TLR9; [1]): 73 nM | IC50 (human TLR8): > 50000 nM

SMILES: CC(C)N1CCC(N2CCC(c3cc4nc(-c5ccc(S(C)(=O)=O)cc5)n(C)c4cc3F)CC2)CC1 [Example 99, 6-fluoro-5-(1′-isopropyl-[1,4′-bipiperidin]-4-yl)-1-methyl-2-(4-(methylsulfonyl)phenyl)-1H-benzo[d]imidazole]
IC50 (human TLR7): 38300 nM | IC50 (human TLR9; [1]): 360 nM | IC50 (human TLR9; [2]): 358 nM | IC50 (human TLR8): > 50000 nM

SMILES: CC(C)N1CCC(N2CCC(c3ccc4nc(-c5ccc(S(C)(=O)=O)cc5)n(C)c4c3F)CC2)CC1 [Example 102, 7-fluoro-6-(1′-isopropyl-[1,4′-bipiperidin]-4-yl)-1-methyl-2-(4-(methylsulfonyl)phenyl)-1H-benzo[d]imidazole]
IC50 (human TLR7): 9800 nM | IC50 (human TLR9; [1]): 30 nM | IC50 (human TLR8): > 50000 nM

SMILES: Cc1cc(C2CCN(C3CC4CCC(C3)N4CC(C)C)CC2)cc2c1nc(-c1ccc(S(C)(=O)=O)cc1)n2C (stereo not shown) [Example 118, 6-(1-(8-isobutyl-8-azabicyclo[3.2.1]octan-3-yl)piperidin-4-yl)-1,4-dimethyl-2-(4-(methylsulfonyl)phenyl)-1H-benzo[d]imidazole]
IC50 (human TLR7): 19200 nM | IC50 (human TLR9; [1]): 120 nM | IC50 (human TLR9; [2]): 116 nM | IC50 (human TLR8): > 25000 nM

SMILES: Cc1cc(C2CCN(C3CC4CCC(C3)N4CC(C)C)CC2)cc2[nH]c(-c3ccc(S(C)(=O)=O)cc3)nc12 (stereo not shown) [Example 121, 6-(1-(8-isobutyl-8-azabicyclo[3.2.1]octan-3-yl)piperidin-4-yl)-4-methyl-2-(4-(methylsulfonyl)phenyl)-1H-benzo[d]imidazole]
IC50 (human TLR7): 14500 nM | IC50 (human TLR9; [1]): 19 nM | IC50 (human TLR8): > 25000 nM

SMILES: COc1cc(-c2nc3c(C)cc(C4CCN(C5CCN(C(C)C)CC5)CC4)cc3n2C)cn2ncnc12 [Example 125, 6-(6-(1′-isopropyl-[1,4′-bipiperidin]-4-yl)-1,4-dimethyl-1H-benzo[d]imidazol-2-yl)-8-methoxy-[1,2,4]triazolo[1,5-a]pyridine]
IC50 (human TLR7): 600 nM | IC50 (human TLR9; [1]): 28 nM | IC50 (human TLR8): 2100 nM

SMILES: Cc1cc(-c2ccc(N3CCN(C4CCC4)CC3)cc2)cc2c1nc(-c1ccc(S(C)(=O)=O)cc1)n2C [Example 174, 6-(4-(4-cyclobutylpiperazin-1-yl)phenyl)-1,4-dimethyl-2-(4-(methylsulfonyl)phenyl)-1H-benzo[d]imidazole]
IC50 (human TLR7): > 50000 nM | IC50 (human TLR9): 480 nM | IC50 (human TLR9; [2]): 480 nM | IC50 (human TLR8): > 50000 nM

Next, values leading:

IC50 (human TLR7): 19400 nM | IC50 (human TLR9; [1]): 100 nM | IC50 (human TLR9; [2]): 104 nM | IC50 (human TLR8): > 50000 nM
SMILES: CC(C)N1CCC(N2CCC(c3cc(F)c4c(c3)nc(-c3ccc(S(C)(=O)=O)cc3)n4C)CC2)CC1 [Example 91, 7-fluoro-5-(1′-isopropyl-[1,4′-bipiperidin]-4-yl)-1-methyl-2-(4-(methylsulfonyl)phenyl)-1H-benzo[d]imidazole]

IC50 (human TLR7): 25500 nM | IC50 (human TLR9; [1]): 95 nM | IC50 (human TLR8): > 50000 nM
SMILES: CC(C)N1CCC(N2CCC(c3cc(F)c4nc(-c5ccc(S(C)(=O)=O)cc5)n(C)c4c3)CC2)CC1 [Example 105, 4-fluoro-6-(1′-isopropyl-[1,4′-bipiperidin]-4-yl)-1-methyl-2-(4-(methylsulfonyl)phenyl)-1H-benzo[d]imidazole]

IC50 (human TLR7): > 50000 nM | IC50 (human TLR9; [1]): 130 nM | IC50 (human TLR9; [2]): 127 nM | IC50 (human TLR8): > 50000 nM
SMILES: Cc1cc(C2CCN(C3CCN(C(C)C)CC3)CC2)cc2c1nc(-c1ccc(S(N)(=O)=O)cc1)n2C [Example 112, 4-(6-(1′-isopropyl-[1,4′-bipiperidin]-4-yl)-1,4-dimethyl-1H-benzo[d]imidazol-2-yl)benzenesulfonamide]

IC50 (human TLR7): 8900 nM | IC50 (human TLR9; [1]): 140 nM | IC50 (human TLR9; [2]): 139 nM | IC50 (human TLR8): > 25000 nM
SMILES: Cc1cc(C2CCN(C3CCN(C(C)C)CC3)CC2)cc2c1nc(-c1ccc(S(C)(=O)=O)c(F)c1)n2C [Example 122, 2-(3-fluoro-4-(methylsulfonyl)phenyl)-6-(1′-isopropyl-[1,4′-bipiperidin]-4-yl)-1,4-dimethyl-1H-benzo[d]imidazole]
